This is an account of results in patent publication US20060030600A1, “Dual NK1/NK3 receptor antagonists for the treatment of schizophrenia” (priority 2004, published 2006).

In one experiment the target is human NK1 receptor (Homo sapiens, UniProt P25103). Briefly: NK1 receptor affinity, [3H]substance P binding. Conditions: human NK1 receptors in CHO cells, [3H]substance P 0.6 nM; read-out: pki NK1 (converted). As to the method: The affinity of test compounds for the NK1 receptor was evaluated at human NK1 receptors in CHO cells infected with the human NK1 receptor (using the Semliki virus expression system) and radiolabelled with [^3H]substance P (final concentration 0.6 nM). Binding assays were performed in HEPES buffer (50 mM, pH 7.4) containing BSA (0.04%) leupeptin (16.8 μg/ml), MnCl2 (3mM) and phosphoramidon (2 μM). Binding assays consisted of 250 μl of membrane suspension (approximately 1.5 μg/well in a 96 well plate), […] of buffer of displacing agent and 125 μl of [^3H]substance P. Displacement curves were determined with at least seven concentrations of the compound. The assay tubes were incubated for 60 min at room temperature after which time the tube contents were rapidly filtered under vacuum through GF/C filters presoaked for 60 min with PEI (0.3%) with 3×1 ml washes of HEPES buffer (50 mM, pH 7.4). The radioactivity retained on the filters was measured by scintillation counting. All assays were performed in duplicate in at least 2 separate experiments.

Experiment [1] addresses T1, Recombinant human NK3 (hNK3) receptor (Homo sapiens, UniProt P29371).
T1 construct: expressed in transfected cells
T1 sequence (P29371 1-465): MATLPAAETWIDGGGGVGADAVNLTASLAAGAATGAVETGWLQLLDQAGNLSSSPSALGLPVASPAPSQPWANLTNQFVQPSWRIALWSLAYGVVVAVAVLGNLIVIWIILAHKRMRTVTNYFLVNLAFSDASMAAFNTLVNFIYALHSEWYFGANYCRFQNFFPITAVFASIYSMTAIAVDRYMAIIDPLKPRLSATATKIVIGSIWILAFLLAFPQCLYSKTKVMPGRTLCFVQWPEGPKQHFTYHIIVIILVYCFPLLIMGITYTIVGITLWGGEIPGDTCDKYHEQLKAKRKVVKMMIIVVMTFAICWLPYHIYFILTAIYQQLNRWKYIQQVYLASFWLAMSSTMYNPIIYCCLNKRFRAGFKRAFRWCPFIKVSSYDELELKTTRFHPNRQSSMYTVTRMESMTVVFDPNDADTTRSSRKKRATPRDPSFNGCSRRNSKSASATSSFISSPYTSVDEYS
As to the kind of experiment: NK3 receptor affinity, [3H]SR142801 binding. Conditions: hNK3 receptor membranes, [3H]SR142801 0.3 nM; read-out: pki NK3 (converted). The procedure: Recombinant human NK3 (hNK3) receptor affinity was determined in a 96 well plate assay, using [^3H]SR142801 (final concentration 0.3 nM) to radiolabel the hNK3 receptor in the presence of 10 concentrations of competing compound or buffer. Non specific binding was determined using 10 μM SB222200. Assay buffer consisted of Tris-HCl (50 mM, pH 7.4), BSA (0.1%), MnCl2 (4 mM) and phosphoramidon (1 μM). Membrane preparations of hNK3 receptors (approximately 2.5 μg/well in a 96 well plate) were used to initiate the incubation for 90 min at room temperature. This assay was terminated by rapid filtration under vacuum through GF/C filters, presoaked for 90 min with PEI (0.3%), with 3×0.5 ml washes of ice-cold Tris buffer (50 mM, pH 7.4) containing 0.1% BSA. The radioactivity retained on the filters was measured by scintillation counting. All assays were performed in duplicate in at least two separate experiments.

For experiment [2] the following is noted: phase II trial, cited from earlier work.

The structures appear in SMILES notation.

Sequence of human NK1 receptor (P25103 whole entry): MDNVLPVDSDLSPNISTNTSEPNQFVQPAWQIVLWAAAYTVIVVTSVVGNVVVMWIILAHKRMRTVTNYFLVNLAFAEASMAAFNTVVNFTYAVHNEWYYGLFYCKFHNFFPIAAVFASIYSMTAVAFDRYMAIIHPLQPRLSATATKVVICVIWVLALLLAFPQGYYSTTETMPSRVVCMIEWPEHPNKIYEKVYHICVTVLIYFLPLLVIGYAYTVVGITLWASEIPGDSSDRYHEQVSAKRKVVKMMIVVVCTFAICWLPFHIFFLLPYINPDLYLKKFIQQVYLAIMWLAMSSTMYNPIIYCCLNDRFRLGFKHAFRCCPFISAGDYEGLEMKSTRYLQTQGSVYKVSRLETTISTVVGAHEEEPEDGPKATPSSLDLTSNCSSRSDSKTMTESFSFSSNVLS

For `CN(C(=O)C(C)(C)c1cc(C(F)(F)F)cc(C(F)(F)F)c1)c1cnc(OC(CO)CO)cc1-c1ccccc1Cl` [Example 2, 2-(3,5-Bis-trifluoromethyl-phenyl)-N-[4-(2-chloro-phenyl)-6-(2-hydroxy-1-hydroxymethyl-ethoxy)-pyridin-3-yl]-N-methyl-isobutyramide], the figures for the Ki (on human NK1 receptor; in experiment [1]) were 1.23 nM and 9.12 nM, respectively.
Taken in the same sequence, the figures for `Cc1cc(F)ccc1-c1cc(C2=CCS(=O)(=O)CC2)ncc1N(C)C(=O)C(C)(C)c1cc(C(F)(F)F)cc(C(F)(F)F)c1` [Example 15, 2-(3,5-Bis-trifluoromethyl-phenyl)-N-[6-(1,1-dioxo-1,2,3,6-tetrahydro-1λ^6-thiopyran-4-yl)-4-(4-fluoro-2-methyl-phenyl)-pyridin-3-yl]-N-methyl-isobutyramide] were 0.589 nM and 6.76 nM.
Taken in the same sequence, the figures for `Cc1cc(F)ccc1-c1cc(-c2cccc(CO)c2)ncc1N(C)C(=O)C(C)(C)c1cc(C(F)(F)F)cc(C(F)(F)F)c1` [Example 7, 2-(3,5-Bis-trifluoromethyl-phenyl)-N-[4-(4-fluoro-2-methyl-phenyl)-6-(3-hydroxymethyl-phenyl)-pyridin-3-yl]-N-methyl-isobutyramide] were 1.2 nM and 6.92 nM.
Taken in the same sequence, the figures for `Cc1cc(F)ccc1-c1cc(C2=CCSCC2)ncc1N(C)C(=O)C(C)(C)c1cc(C(F)(F)F)cc(C(F)(F)F)c1` [Example 14, 2-(3,5-Bis-trifluoromethyl-phenyl)-N-[6-(3,6-dihydro-2H-thiopyran-4-yl)-4-(4-fluoro-2-methyl-phenyl)-pyridin-3-yl]-N-methyl-isobutyramide] were 1.15 nM and 14.1 nM.
As to `CN(C(=O)C(C)(C)c1cc(C(F)(F)F)cc(C(F)(F)F)c1)c1cnc(OCCO)cc1-c1ccccc1Cl` [Example 1, 2-(3,5-Bis-trifluoromethyl-phenyl)-N-[4-(2-chloro-phenyl)-6-(2-hydroxy-ethoxy)-pyridin-3-yl]-N-methyl-isobutyramide], the Ki is 0.562 nM at human NK1 receptor and 19.5 nM in experiment [1].
Taken in the same sequence, the figures for `Cc1cc(F)ccc1-c1cc(C2CCN(S(C)(=O)=O)CC2)ncc1N(C)C(=O)C(C)(C)c1cc(C(F)(F)F)cc(C(F)(F)F)c1` [Example 11, 2-(3,5-Bis-trifluoromethyl-phenyl)-N-[4-(4-fluoro-2-methyl-phenyl)-1′-methanesulfonyl-1′,2′,3′,4′,5′,6′-hexahydro-[2,4′]bipyridinyl-5-yl]-N-methyl-isobutyramide] were 1.1 nM and 6.46 nM.
Taken in the same sequence, the figures for `Cc1cc(F)ccc1-c1cc(C2CCCN(S(C)(=O)=O)C2)ncc1N(C)C(=O)C(C)(C)c1cc(C(F)(F)F)cc(C(F)(F)F)c1` (racemic) [Example 12, (RS)-2-(3,5-Bis-trifluoromethyl-phenyl)-N-[4-(4-fluoro-2-methyl-phenyl)-1′-methanesulfonyl-1′,2′,3′,4′,5′,6′-hexahydro-[2,3′]bipyridinyl-5-yl]-N-methyl-isobutyramide] were 0.589 nM and 21.4 nM.
Taken in the same sequence, the figures for `Cc1cc(F)ccc1-c1cc(-c2ccnc(CO)c2)ncc1N(C)C(=O)C(C)(C)c1cc(C(F)(F)F)cc(C(F)(F)F)c1` [Example 9, 2-(3,5-Bis-trifluoromethyl-phenyl)-N-[4-(4-fluoro-2-methyl-phenyl)-2′-hydroxymethyl-[2,4′]bipyridinyl-5-yl]-N-methyl-isobutyramide] were 1.55 nM and 11.5 nM.
Turning to `Cc1cc(F)ccc1-c1cc(-c2cccnc2)ncc1N(C)C(=O)C(C)(C)c1cc(C(F)(F)F)cc(C(F)(F)F)c1` [Example 5, 2-(3,5-Bis-trifluoromethyl-phenyl)-N-[4-(4-fluoro-2-methyl-phenyl)-[2,3′]bipyridinyl-5-yl]-N-methyl-isobutyramide], the Ki on human NK1 receptor was 1.29 nM; in experiment [1], 16.2 nM.
Taken in the same sequence, the figures for `Cc1cc(F)ccc1-c1cc(C2CCS(=O)(=O)CC2)ncc1N(C)C(=O)C(C)(C)c1cc(C(F)(F)F)cc(C(F)(F)F)c1` [Example 16, 2-(3,5-Bis-trifluoromethyl-phenyl)-N-[6-(1,1-dioxo-hexahydro-1λ^6-thiopyran-4-yl)-4-(4-fluoro-2-methyl-phenyl)-pyridin-3-yl]-N-methyl-isobutyramide] were 1.38 nM and 16.6 nM.
Taken in the same sequence, the figures for `CC(=O)N1CCCC(c2cc(-c3ccc(F)cc3C)c(N(C)C(=O)C(C)(C)c3cc(C(F)(F)F)cc(C(F)(F)F)c3)cn2)C1` (racemic) [Example 13, (RS)-N-[1′-Acetyl-4-(4-fluoro-2-methyl-phenyl)-1′,2′,3′,4′,5′,6′-hexahydro-[2,3′]bipyridinyl-5-yl]-2-(3,5-bis-trifluoromethyl-phenyl)-N-methyl-isobutyramide] were 1.62 nM and 14.5 nM.
Taken in the same sequence, the figures for `Cc1cc(F)ccc1-c1cc(-c2cncc(CO)c2)ncc1N(C)C(=O)C(C)(C)c1cc(C(F)(F)F)cc(C(F)(F)F)c1` [Example 8, 2-(3,5-Bis-trifluoromethyl-phenyl)-N-[4-(4-fluoro-2-methyl-phenyl)-5′-hydroxymethyl-[2,3′]bipyridinyl-5-yl]-N-methyl-isobutyramide] were 1.82 nM and 6.17 nM.
`Cc1cc(F)ccc1-c1cc(OC[C@@H]2CCCN2)ncc1N(C)C(=O)C(C)(C)c1cc(C(F)(F)F)cc(C(F)(F)F)c1` [Example 3, (S)-2-(3,5-Bis-trifluoromethyl-phenyl)-N-[4-(4-fluoro-2-methyl-phenyl)-6-(pyrrolidin-2-ylmethoxy)-pyridin-3-yl]-N-methyl-isobutyramide]: the Ki was 0.851 nM on human NK1 receptor and 23.4 nM in experiment [1].
For the compound `Cc1cc(F)ccc1-c1cc(-c2ccc[n+]([O-])c2)ncc1N(C)C(=O)C(C)(C)c1cc(C(F)(F)F)cc(C(F)(F)F)c1` [Example 6, 2-(3,5-Bis-trifluoromethyl-phenyl)-N-[4-(4-fluoro-2-methyl-phenyl)-1′-oxy-[2,3′]bipyridinyl-5-yl]-N-methyl-isobutyramide], the Ki is 0.977 nM on human NK1 receptor and 24.5 nM in experiment [1].
Take `CC(=O)N(C)C1(c2ccccc2)CCN(CCC[C@]2(c3ccc(Cl)c(Cl)c3)CCCN(C(=O)c3ccccc3)C2)CC1` [SR 142,801, Osanetant]: in experiment [2] (altered behaviour, delusion, hallucinations, extreme emotions, excited motor activity, incoherent speech), the “activity on positive symptoms of schizophrenia” value is reported as “active on positive symptoms of schizophrenia”. Moreover, the “activity on negative symptoms of schizophrenia” value in experiment [2] (depression, anhedonia, social isolation or memory and attention deficits) is “inactive in the treatment of negative symptoms”.
For `Cc1cc(F)ccc1-c1cc(SCCO)ncc1N(C)C(=O)C(C)(C)c1cc(C(F)(F)F)cc(C(F)(F)F)c1` [Example 4, 2-(3,5-Bis-trifluoromethyl-phenyl)-N-[4-(4-fluoro-2-methyl-phenyl)-6-(2-hydroxy-ethylsulfanyl)-pyridin-3-yl]-N-methyl-isobutyramide], the Ki was 2.34 nM on human NK1 receptor and 8.51 nM in experiment [1].
Taken in the same sequence, the figures for `Cc1cc(F)ccc1-c1cc(C2=CCN(S(C)(=O)=O)CC2)ncc1N(C)C(=O)C(C)(C)c1cc(C(F)(F)F)cc(C(F)(F)F)c1` [Example 10, 2-(3,5-Bis-trifluoromethyl-phenyl)-N-[4-(4-fluoro-2-methyl-phenyl)-1′-methanesulfonyl-1′,2′,3′,6′-tetrahydro-[2,4′]bipyridinyl-5-yl]-N-methyl-isobutyramide] were 0.617 nM and 2.63 nM.
